From PMC9100275, “Development of 1-(4-(Substituted)piperazin-1-yl)-2-((2-((4-methoxybenzyl)thio)pyrimidin-4-yl)oxy)ethanones That Target Poly (ADP-Ribose) Polymerase in Human Breast Cancer Cells” (Molecules, 2022) come the findings set out here.

Molecules are shown by their SMILES. Where two headings read alike, the source gives them in different places.

Experiment [1] has as its target T1, PARP1 (Homo sapiens, UniProt P09874). Description: colorimetric PARP activity assay with recombinant human PARP enzyme; % inhibition at […] ([…] at […]). Format: biochemical.
Experiment [2] deals with T1, PARP1. The description is as above. Format: biochemical. This is another data set of the same source.

T1 sequence (P09874 2-1014): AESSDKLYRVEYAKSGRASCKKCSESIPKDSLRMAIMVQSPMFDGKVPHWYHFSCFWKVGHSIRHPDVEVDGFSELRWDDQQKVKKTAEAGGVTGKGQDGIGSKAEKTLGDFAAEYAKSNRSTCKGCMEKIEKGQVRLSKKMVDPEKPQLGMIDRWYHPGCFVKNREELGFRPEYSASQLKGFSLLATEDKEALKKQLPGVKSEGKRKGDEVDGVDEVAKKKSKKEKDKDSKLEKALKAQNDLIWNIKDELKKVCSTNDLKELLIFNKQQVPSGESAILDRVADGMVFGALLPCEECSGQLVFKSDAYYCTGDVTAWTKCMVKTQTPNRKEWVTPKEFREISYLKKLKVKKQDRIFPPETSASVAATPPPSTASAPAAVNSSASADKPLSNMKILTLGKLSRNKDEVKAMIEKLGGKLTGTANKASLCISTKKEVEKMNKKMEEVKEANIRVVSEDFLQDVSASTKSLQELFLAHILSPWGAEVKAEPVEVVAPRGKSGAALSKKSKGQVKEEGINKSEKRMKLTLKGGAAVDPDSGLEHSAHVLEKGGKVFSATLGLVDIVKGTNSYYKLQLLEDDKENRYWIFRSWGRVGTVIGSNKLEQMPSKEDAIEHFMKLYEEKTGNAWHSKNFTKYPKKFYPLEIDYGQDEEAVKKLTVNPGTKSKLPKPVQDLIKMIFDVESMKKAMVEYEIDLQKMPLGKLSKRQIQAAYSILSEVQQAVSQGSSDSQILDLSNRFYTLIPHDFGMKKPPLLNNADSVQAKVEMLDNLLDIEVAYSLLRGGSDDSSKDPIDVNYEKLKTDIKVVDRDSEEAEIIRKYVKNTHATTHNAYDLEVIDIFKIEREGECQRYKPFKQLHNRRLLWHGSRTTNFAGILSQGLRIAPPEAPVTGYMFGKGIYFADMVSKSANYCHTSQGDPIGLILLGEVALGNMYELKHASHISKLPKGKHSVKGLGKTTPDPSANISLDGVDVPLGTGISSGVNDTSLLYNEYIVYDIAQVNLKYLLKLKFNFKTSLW

One may read the inhibition as the relative decrease from the control value, in per cent. With `COc1ccc(CSc2nccc(OCC(=O)N3CCN(c4cccc(Cl)c4Cl)CC3)n2)cc1` [5a, 1-(4-(2,3-Dichlorophenyl)piperazin-1-yl)-2-((2-((4-methoxybenzyl)thio)pyrimidin-4-yl)oxy)ethanone], the inhibition at 10 µM in experiment [1] came to 70.3%.
Regarding `COc1ccc(CSc2nccc(OCC(=O)N3CCN(c4ccc(C)cc4)CC3)n2)cc1` [5e, 2-((2-((4-Methoxybenzyl)thio)pyrimidin-4-yl)oxy)-1-(4-(p-tolyl)piperazin-1-yl)ethanone], the inhibition at 10 µM in experiment [2] turned out to be 53%.
